# Results reported in PMC6211275, “Phosphonate inhibitors of West Nile virus NS2B/NS3 protease” (Journal of Enzyme Inhibition and Medicinal Chemistry, 2018).
# Like-named read-outs stand apart in the source and are kept apart here. Marks after values point to notes of the source that are not given here. Peptide text beside a SMILES is read from it. * marks the point of attachment. Cbz = O=C(OCc1ccccc1)*; PhAc = O=C(Cc1ccccc1)*
# Assays:
# [1] = system: West Nile virus NS2B/NS3 protease; settings: cited from earlier work
# Dengue and WNV titres = system: Dengue and WNV titres; design: method as in earlier work; settings: cell-based assays of virus replication; ref 15 (Behnam et al.); read-out: EC50, reduction of Dengue and WNV titres; cited from earlier work
# WNV NS2B/NS3 protease = WNV NS2B/NS3 protease (West Nile virus, UniProt P06935); test: In vitro NS2B/NS3 protease inhibition (fluorescent substrate Pyr-RTKR-AMC, progress curve method); type: biochemical; settings: for percent of inhibition: inhibitor 100 µM, after 30 min incubation at 37 °C; for k2/Ki: Table 2, peptide phosphonates; for improvement in inhibitory potency after introduction of P2 Arg and P3 Lys: peptidyl derivative vs. simple Cbz-protected parent phosphonate
# Chain of WNV NS2B/NS3 protease (P06935 1502-1680): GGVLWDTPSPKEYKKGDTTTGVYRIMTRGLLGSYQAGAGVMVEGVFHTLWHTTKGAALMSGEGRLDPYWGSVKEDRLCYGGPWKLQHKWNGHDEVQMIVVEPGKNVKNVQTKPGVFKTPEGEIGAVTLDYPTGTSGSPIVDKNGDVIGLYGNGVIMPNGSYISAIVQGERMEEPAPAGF
# Chain of WNV NS2B/NS3 protease (P06935 1419-1466): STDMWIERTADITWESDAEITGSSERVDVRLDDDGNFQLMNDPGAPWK
# Method: For the initial screening, Cbz-protected aminophosphonates were assayed in 96 well microplates (Nunc™ F96 MicroWell™ White Polystyrene Plate) in the following protease buffer: 50 mM Tris, 1 mM Chaps, 20% glycerol, pH 8.5. WNV NS2B/NS3 protease (AnaSpec, Liege, Belgium; 20 nM) was pre-incubated with tested inhibitor (100 µM) in the protease buffer at 37 °C for 10 min prior an addition of the fluorescent substrate Pyr-RTKR-AMC (AnaSpec, Liege, Belgium; 20 µM). The progress of the reaction was monitored continuously (λex = 354 nm, λem = 442 nm) at 37 °C on a Spectra Max Gemini XPS spectrofluorometer (Molecular Devices, Sunnyvale, CA) for 30 min. […] In 96 well microplates narrowed concentration of inhibitors and constant substrate concentration (Pyr-RTKR-AMC, C = 20 µM, KM = 59 µM) were prepared. The enzyme solution was added and enzymatic reaction was monitored (Figure S1). Using a model for irreversible inhibition, in which the first order inactivation rate constant kobs is hyperbolic dependent from the inhibitor concentration Ki and k2/Ki values were calculated (equations (1–4) in supplementary material)[29]. Control progress curves in the absence of inhibitor were linear.
# The inhibitory activity of the compounds was determined by the progress curve method. First the data from nonlinear progress curves with time dependent inhibitors were fit to eq.1 to obtain the first-order rate constant (kobs):
# The second-order rate constants (k2/KI) and (KI)app values were calculated using hyperbolic regression according to equation 3: […]
# KI values were calculated according to equation 3: […]
# human cathepsin G = target: T1, human cathepsin G (Homo sapiens, UniProt P08311); test: Control proteases inhibition assay, cathepsin G; type: biochemical; settings: inhibitor concentration 25 μM, after 30 min incubation at 37 °C
# T1 construct: purchased Biocentrum, Kraków, Poland
# T1 sequence (P08311 21-255): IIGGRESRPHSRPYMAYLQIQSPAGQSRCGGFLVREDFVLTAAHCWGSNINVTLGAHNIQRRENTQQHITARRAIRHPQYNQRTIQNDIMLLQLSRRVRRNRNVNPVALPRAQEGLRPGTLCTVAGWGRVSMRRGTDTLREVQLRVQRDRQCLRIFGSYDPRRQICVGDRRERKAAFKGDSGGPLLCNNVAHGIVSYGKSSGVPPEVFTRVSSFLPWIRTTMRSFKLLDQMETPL
# Method: (§1) Bovine β-trypsin (AppliChem, Łódź, Poland), human cathepsin G (Biocentrum, Kraków, Poland) and Human Airway Trypsin-like Protease (HAT) (R&D Systems, Minneapolis, MN) were used as control proteases to screen the activity of NS2B/NS3 protease inhibitors (36–39) obtained in this study. Inhibitors were assayed in 96-well microplates in the 0.1 M HEPES, 0.5 M NaCl, 0.03%, pH 7.5 Triton X-100 (for bovine β-trypsin and cathepsin G). Bovine β-trypsin (15 nM), human cathepsin G (150 nM) or HAT protease (0.001 µg) was pre-incubated with tested inhibitor (25 µM) in the protease buffer at 37 °C for 10 min prior to the addition of the fluorescent substrate: Cbz-Arg-AFC (synthesised in-house according to the procedure described by Bissell[30]; 50 µM; λex = 400 nm, λem = 505 nm, for bovine β-trypsin); MeO-Suc-Ala-Ala-Pro-Val-AMC (Bachem, Bubendorf, Switzerland; 40 µM, λex = 340 nm, λem = 440 nm, for human cathepsin G) or Phe-Ser Arg-AMC (Bachem, Bubendorf, Switzerland; 40 µM, λex = 340 nm, λem = 440 nm, for HAT protease). The progress of the reactions was monitored continuously at 37 °C on a Spectra Max Gemini XPS spectrofluorometer for 20 min. Control curves in the absence of inhibitor were linear. The rate of the tested protease inhibition was calculated from the linear range of the plot.
# Bovine β-trypsin = target: T2, Bovine β-trypsin (Bos taurus, UniProt P00760); test: Control proteases inhibition assay, trypsin; type: biochemical; settings: inhibitor concentration 25 μM, after 30 min incubation at 37 °C
# T2 construct: purchased AppliChem, Łódź, Poland
# T2 sequence (P00760 24-246): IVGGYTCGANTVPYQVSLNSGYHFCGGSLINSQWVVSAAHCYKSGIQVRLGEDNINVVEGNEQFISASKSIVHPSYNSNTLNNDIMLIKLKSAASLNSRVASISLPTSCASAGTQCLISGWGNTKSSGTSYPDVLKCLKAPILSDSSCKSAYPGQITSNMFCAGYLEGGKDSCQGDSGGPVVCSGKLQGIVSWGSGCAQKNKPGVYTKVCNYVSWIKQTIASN
# Method: as §1
# [2] = target: T3, Human Airway Trypsin-like Protease (HAT) (Homo sapiens, UniProt O60235); test: Control proteases inhibition assay, HAT protease; type: biochemical; settings: inhibitor concentration 25 μM, after 30 min incubation at 37 °C
# T3 construct: purchased R&D Systems, Minneapolis, MN
# T3 sequence (O60235 1-418): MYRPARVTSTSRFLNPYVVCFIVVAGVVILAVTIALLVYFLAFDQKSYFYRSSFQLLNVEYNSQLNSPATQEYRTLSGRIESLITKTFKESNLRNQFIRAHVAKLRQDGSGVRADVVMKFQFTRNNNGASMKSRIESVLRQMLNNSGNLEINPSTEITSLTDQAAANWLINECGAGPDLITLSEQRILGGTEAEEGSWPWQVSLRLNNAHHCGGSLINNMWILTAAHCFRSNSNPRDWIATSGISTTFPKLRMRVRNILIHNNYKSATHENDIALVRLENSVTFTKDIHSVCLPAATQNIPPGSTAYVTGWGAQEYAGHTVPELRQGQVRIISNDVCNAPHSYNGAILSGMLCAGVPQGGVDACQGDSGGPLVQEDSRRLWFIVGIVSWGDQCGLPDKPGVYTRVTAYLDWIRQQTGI
# Method: as §1
# [3] = Stability in assay buffer (HPLC analysis); type: physicochemical
# Method: Stability in assay buffer. A stock solution of compound (38) (10 mM in acetonitrile) was added to the assay buffer (50 mM Tris, 1 mM Chaps, 20% glycerol, pH 8.5) to make a final concentration of 2 mg/mL and incubated at 37°C. The resulting mixture was subjected to HPLC analysis to determine compound stability using a Discovery® BIO Wide Pore C8 HPLC Column (250 mm × 4.6 mm, 10 μm) with a 1 mL/min flow rate, gradient 0−100% [0.05% TFA in acetonitrile] in [0.05% TFA in water] over a period of 15 min.
# [4] = tripeptide aldehydes, ref 11 (Stoermer et al.)
structure (smiles),measurement,setting,value
N=C(N)NCCC[C@H](Nc1nccs1)C(=O)N[C@@H](CCCCN)C(=O)N[C@H](C(N)=O)c1ccc(OCc2ccc(C(F)(F)F)cc2)cc1 [Compound 5],Ki,[1]; ref 15 (Behnam et al.),39 nM
same,EC50,Dengue and WNV titres,15500 nM
N=C(N)SCCCC(NC(=O)OCc1ccccc1)P(=O)(Oc1ccccc1)Oc1ccccc1 (centres unmarked) [Compound 8],percent of inhibition,WNV NS2B/NS3 protease; substrate Pyr-RTKR-AMC 20 µM,22%
"NC(=O)CCC(NC(=O)OCc1ccccc1)P(=O)(Oc1ccccc1)Oc1ccccc1 (centres unmarked) [Compound 11, Cbz-Gln^P(OPh)2]",percent of inhibition,WNV NS2B/NS3 protease; substrate Pyr-RTKR-AMC 20 µM,15%
N=C(N)NCCC[C@@H](C=O)NC(=O)[C@H](CCCCN)NC(=O)[C@H](CCCCN)NC(=O)Cc1ccc(-c2ccccc2)cc1 [Compound 1],Ki,[1]; [4],6 nM
NCCCC[C@H](NC(=O)c1ccc(/C=C2\SC(=O)N(CC3CCCCC3)C2=O)cc1)C(=O)N[C@@H](CCCCN)C(=O)N[C@H](C(N)=O)c1ccccc1 [Compound 4],Ki,[1]; ref 14 (Bastos et al.),750 nM
N#Cc1ccc2cc(C(NC(=O)OCc3ccccc3)P(=O)(Oc3ccccc3)Oc3ccccc3)ccc2c1 (centres unmarked) [Compound 22],percent of inhibition,WNV NS2B/NS3 protease; substrate Pyr-RTKR-AMC 20 µM,2%
"N=C(N)NCCC[C@H](NC(=O)[C@H](CCCCN)NC(=O)OCc1ccccc1)C(=O)NC(CCCCN)P(=O)(Oc1ccccc1)Oc1ccccc1 (stereo partly drawn) [Compound 36, Cbz-Lys-Arg-Lys^P(OPh)2]",Ki,WNV NS2B/NS3 protease,8000 ± 900 nM
same,k2/Ki,WNV NS2B/NS3 protease; substrate Pyr-RTKR-AMC 20 µM,5 520 M^−1s^−1
same,improvement in inhibitory potency after introduction of P2 Arg and P3 Lys,WNV NS2B/NS3 protease,69 fold
same,"percent of inhibition, CatG",human cathepsin G,2%
same,"percent of inhibition, Trypsin",Bovine β-trypsin,8%^a
same,"percent of inhibition, HAT",[2],2%
"N=C(N)NCCC[C@@H](NC(=O)[C@@H](CCCCN)NC(=O)OCc1ccccc1)C(=O)NC(Cc1ccc(NC(=N)N)cc1)P(=O)(Oc1ccccc1)Oc1ccccc1 (stereo partly drawn) [Compound 38, Cbz-Lys-Arg-(4-GuPhe)^P(OPh)2]",Ki,WNV NS2B/NS3 protease,400 ± 30 nM
same,kinact/KI,WNV NS2B/NS3 protease; read-out: k2/Ki,28300 M⁻¹ s⁻¹
same,"percent of inhibition, CatG",human cathepsin G,no significant inhibition
same,inhibition at 25 µM,"human cathepsin G; read-out: percent of inhibition, CatG",7%
same,"percent of inhibition, Trypsin",Bovine β-trypsin,no significant inhibition
same,inhibition at 25 µM,"Bovine β-trypsin; read-out: percent of inhibition, Trypsin",4%
same,"percent of inhibition, HAT",[2],no significant inhibition
same,inhibition at 25 µM,"[2]; read-out: percent of inhibition, HAT",5%
same,inhibitor degradation,"[3]; during enzyme inhibition assay time, assay buffer pH 8.5",~ 1%
same,degradation of compound,"[3]; over 6 hours, assay buffer pH 8.5, 37 °C",~ 13%
same,% of initial inhibitor concentration,"[3]; time 0.0 h, assay buffer pH 8.5, 37 °C",100%
same,% of initial inhibitor concentration,"[3]; time 0.5 h, assay buffer pH 8.5, 37 °C","98,93%"
same,% of initial inhibitor concentration,"[3]; time 1.0 h, assay buffer pH 8.5, 37 °C","98,12%"
same,% of initial inhibitor concentration,"[3]; time 1.5 h, assay buffer pH 8.5, 37 °C","96,27%"
same,% of initial inhibitor concentration,"[3]; time 2.0 h, assay buffer pH 8.5, 37 °C","95,19%"
same,% of initial inhibitor concentration,"[3]; time 2.5 h, assay buffer pH 8.5, 37 °C","95,04%"
same,% of initial inhibitor concentration,"[3]; time 3.0 h, assay buffer pH 8.5, 37 °C","93,35%"
same,% of initial inhibitor concentration,"[3]; time 3.5 h, assay buffer pH 8.5, 37 °C","91,90%"
same,% of initial inhibitor concentration,"[3]; time 4.0 h, assay buffer pH 8.5, 37 °C","91,11%"
same,% of initial inhibitor concentration,"[3]; time 4.5 h, assay buffer pH 8.5, 37 °C","88,43%"
same,% of initial inhibitor concentration,"[3]; time 5.0 h, assay buffer pH 8.5, 37 °C","86,99%"
same,% of initial inhibitor concentration,"[3]; time 5.5 h, assay buffer pH 8.5, 37 °C","86,84%"
same,% of initial inhibitor concentration,"[3]; time 6.0 h, assay buffer pH 8.5, 37 °C","86,73%"
O=C(NC(c1ccc(-n2cnc3ccccc32)cc1)P(=O)(Oc1ccccc1)Oc1ccccc1)OCc1ccccc1 (centres unmarked) [Compound 25],percent of inhibition,WNV NS2B/NS3 protease; substrate Pyr-RTKR-AMC 20 µM,4%
N=C(N)NC1CCC(CNC(=O)[C@H](CCCCN)NC(=O)[C@H](CCCCN)NC(=O)Cc2ccc(Cl)c(Cl)c2)CC1 (some centres unmarked) [Compound 3],Ki,[1]; ref 13 (Hammamy et al.),130 nM
O=C(NC(c1ccc(N2CCOCC2)cc1)P(=O)(Oc1ccccc1)Oc1ccccc1)OCc1ccccc1 (centres unmarked) [Compound 27],percent of inhibition,WNV NS2B/NS3 protease; substrate Pyr-RTKR-AMC 20 µM,1%
N=C(N)NCCC[C@@H](C=O)NC(=O)[C@H](CCCCN)NC(=O)[C@H](CCCCN)NC(=O)Cc1ccccc1 [Compound 2] (PhAc-Lys-Lys-Arg-aldehyde),Ki,[1]; [4],9 nM
N=C(N)c1ccc2cc(C(NC(=O)OCc3ccccc3)P(=O)(Oc3ccccc3)Oc3ccccc3)ccc2c1 (centres unmarked) [Compound 23],inhibition at 100 µM,WNV NS2B/NS3 protease; read-out: percent of inhibition,12%
"N=C(N)NCCCC(C=O)NC(=O)C(CCCNC(=N)N)NC(=O)C(CCCCN)NC(=O)OCc1ccccc1 (stereo not drawn) [Compound 40, Cbz-Lys-Arg-Arg-H, reference compound] (Cbz-Lys-Arg-Arg-aldehyde; configuration not given here)",Ki,"WNV NS2B/NS3 protease; Table 2, peptide phosphonates and reference aldehyde, substrate Pyr-RTKR-AMC 20 µM, read-out: Ki",120 ± 20 nM
"O=C(NC(c1ccc(-n2cccn2)cc1)P(=O)(Oc1ccccc1)Oc1ccccc1)OCc1ccccc1 (centres unmarked) [Compound 24, Benzyl ((4-(1H-pyrazol-1-yl)phenyl)(diphenoxyphosphoryl)methyl)carbamate]",percent of inhibition,WNV NS2B/NS3 protease; substrate Pyr-RTKR-AMC 20 µM,5%
CN1CCN(c2ccc(C(NC(=O)OCc3ccccc3)P(=O)(Oc3ccccc3)Oc3ccccc3)cc2)CC1 (centres unmarked) [Compound 26],percent of inhibition,WNV NS2B/NS3 protease; substrate Pyr-RTKR-AMC 20 µM,3%
"N=C(N)NCCCC(NC(=O)[C@H](CCCNC(=N)N)NC(=O)[C@H](CCCCN)NC(=O)OCc1ccccc1)P(=O)(Oc1ccccc1)Oc1ccccc1 (stereo partly drawn) [Compound 37, Cbz-Lys-Arg-Arg^P(OPh)2]",Ki,WNV NS2B/NS3 protease,3000 ± 300 nM
same,k2/Ki,WNV NS2B/NS3 protease; substrate Pyr-RTKR-AMC 20 µM,10 725 M^−1s^−1
same,improvement in inhibitory potency after introduction of P2 Arg and P3 Lys,WNV NS2B/NS3 protease,69 fold
same,"percent of inhibition, CatG",human cathepsin G,3%
same,"percent of inhibition, Trypsin",Bovine β-trypsin,7%
same,"percent of inhibition, HAT",[2],2%
